Where two headings read alike, the source gives them in different places.
Assays:
androgen receptor = androgen receptor (Homo sapiens, UniProt P10275); assay: AR antagonist cell assay (MMTV-luciferase reporter, MDA-MB453-MMTV clone 54-19); format: cell-based
Description: The compounds ability to antagonize the effects of androgen on the androgen receptor were determined in a whole cell assay as described immediately below.
Experimental Procedure for AR Antagonist Cell Assay
This cell line is a stable transfected cell line with MDA-MB453 cell background (a human breast tumor cell line expressing androgen receptor). A MMTV minimal promoter containing ARE was first cloned in front of a firefly luciferase reporter gene. Then the cascade was cloned into transfection vector pUV120puro. Electroporation method was used for transfecting MDA-MB-453 cell. Puromycin resistant stable cell line was selected.
Cell Culture Media and Reagents:
Culture medium: DMEM (high glucose, Gibco cat #: 11960-044), 10% FBS, and 1% L-glutamine
Plating medium: DMEM (phenol red free), 10% charcoal treated HyClone serum, 1% L-glutamine
Assay medium: DMEM (phenol red free), 1% charcoal treated HyClone serum, 1% L-glutamine, and 1% penicillin/streptomycin
3× luciferase buffer: 2% beta-mercaptoethanol, 0.6% ATP, 0.0135% luciferine in cell lysis buffer
• 1. Cells are maintained in culture medium, splitting cells when they reach 80-90% confluence • 2. To test compounds, 10,000 cells/well are plated to opaque 96 cell culture plate in 100 ul/well plating medium, culture for overnight at 37° C. in cell culture incubator • 3. Carefully remove plating medium, then add 80 ul/well of pre-warmed assay medium, add 10 ul/well testing compound (final concentration at) 1000 nM, 200 nM, 40 nM, 8 nM, 1.6 nM, and 0.32 nM), incubate at 37° C. for 30 minutes • 4. Add 10 ul/well freshly prepared DHT (final concentration at 100 pM) to each well, incubate at 37° C. for 17 hr (overnight) • 5.
The results are reported as the mean of multiple tests as described below (the numbers of tests are indicated in the footnote). N.D. denotes that the compound was not tested.

hAR = molecular target: T1, hAR (Homo sapiens, UniProt P10275); assay: Competitive binding of 3H-DHT to hAR extracts; conditions: baculovirus/Sf9 hAR extract, 1 nM 3H-DHT, one hour at 4° C., mean of multiple tests
T1 construct: made in house; host or cells: baculovirus/Sf9 insect cells
T1 sequence (P10275 1-920): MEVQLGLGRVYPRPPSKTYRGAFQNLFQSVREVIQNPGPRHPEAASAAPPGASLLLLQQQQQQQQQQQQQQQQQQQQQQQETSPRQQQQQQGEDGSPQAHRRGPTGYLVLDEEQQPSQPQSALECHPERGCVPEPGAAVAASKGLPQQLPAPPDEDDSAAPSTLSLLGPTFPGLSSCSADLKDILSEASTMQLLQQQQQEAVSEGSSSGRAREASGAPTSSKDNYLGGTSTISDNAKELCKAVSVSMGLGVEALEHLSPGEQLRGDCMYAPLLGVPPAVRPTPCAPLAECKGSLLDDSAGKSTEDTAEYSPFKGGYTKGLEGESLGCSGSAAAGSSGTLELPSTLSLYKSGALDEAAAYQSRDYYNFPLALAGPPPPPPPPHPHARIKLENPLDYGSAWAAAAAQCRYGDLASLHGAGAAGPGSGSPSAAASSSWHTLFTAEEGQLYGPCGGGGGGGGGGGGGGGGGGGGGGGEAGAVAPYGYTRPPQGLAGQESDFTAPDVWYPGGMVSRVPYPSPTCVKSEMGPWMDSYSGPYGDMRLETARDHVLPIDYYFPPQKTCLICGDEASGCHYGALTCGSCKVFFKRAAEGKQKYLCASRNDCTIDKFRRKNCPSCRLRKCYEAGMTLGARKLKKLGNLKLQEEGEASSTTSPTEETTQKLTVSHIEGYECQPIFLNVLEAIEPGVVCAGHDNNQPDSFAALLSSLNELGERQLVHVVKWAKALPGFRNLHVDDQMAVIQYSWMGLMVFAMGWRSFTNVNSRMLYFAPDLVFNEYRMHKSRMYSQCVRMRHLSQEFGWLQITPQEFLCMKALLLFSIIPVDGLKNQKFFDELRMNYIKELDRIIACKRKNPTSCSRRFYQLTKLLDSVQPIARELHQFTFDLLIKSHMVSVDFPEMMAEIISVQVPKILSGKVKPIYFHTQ
Description: The compounds of Formula I have affinity for the androgen receptor. […] The description below describes how the assay was carried out.
Competitive binding analysis was performed on baculovirus/Sf9 generated hAR extracts in the presence or absence of different concentrations of test agent and a fixed concentration of ^3H-dihydrotestosterone (^3H-DHT) as tracer. This binding assay method is a modification of a protocol previously described (Liao S., et. al. J. Steroid Biochem. 20:11-17 1984). Briefly, progressively decreasing concentrations of compounds are incubated in the presence of hAR extract (Chang et al. P.N.A.S. Vol. 89, pp. […], 1992), hydroxylapatite, and 1 nM ^3H-DHT for one hour at 4° C. Subsequently, the binding reactions are washed three times to completely remove excess unbound ^3H-DHT. hAR bound ^3H-DHT levels are determined in the presence of compounds (i.e. competitive binding) and compared to levels bound when no competitor is present (i.e. maximum binding). Compound binding affinity to the hAR is expressed as the concentration of compound at which one half of the maximum binding is inhibited. Table I below provides the results that were obtained for selected compounds (reported data is the mean of multiple tests as shown below)

male Syrian hamsters = assay: Animal model for inhibition of sebum production (hamster ear); format: in vivo, Syrian hamster; conditions: five days a week, 4 weeks; for % CE reduction / % WE reduction: vs vehicle control
Description: Luderschmidt et al. describes an animal model for testing whether compounds are capable of modulating sebum secretion. Arch. Derm. Res. 258, 185-191 (1977). This model uses male Syrian hamsters, whose ears contain sebaceous glands. The products of Examples 1 and 2 were screened in this model.
Testing for sebum inhibition was carried out in the following manner. Male Syrian hamsters aged 9 to 10 weeks were introduced into the laboratory environment and acclimated for 2 weeks prior to use in the study. Each group consisted of 5 animals and run in parallel with vehicle and positive controls. Prior to administration, a sufficient quantity each compound was dissolved in 1 mL of a solvent consisting of transcutol, propylene glycol, and ethanol (2/2/6 v/v/v) to achieve the final concentration described in Table III.
Animals were dosed topically twice daily, five days a week, for 4 weeks. Each dose consisted of 25 micro liters of vehicle control or drug. The dose was applied to the ventral surfaces of both the right and left ears. All animals were sacrificed approximately 18-24 hours after the final dose. The right ears were collected from each animal and used for sebum analysis.
The ears were prepped for HPLC analysis in the following manner. One 8 mm distal biopsy punch was taken, just above the anatomical “V” mark in the ear to normalize the sample area. The punch was pulled apart. The ventral biopsy surface (the area where the topical dose was directly applied to the sebaceous glands) was retained for testing and the dorsal surface of the biopsy punch was discarded.
Tissue samples were blown with N2 gas and stored at −80° C. under nitrogen until HPLC analysis. In addition to ear samples, an aliquot of each drug and vehicle (at least 250 ul) was also stored at −80° C. for inclusion in the HPLC analysis.
HPLC analysis was carried out on an extract of the tissue sample. Tissue samples were contacted with 3 ml of solvent (a 4:1 admixture of 2,2,4-trimethylpentane and isopropyl alcohol). The mixture was shaken for 15 minutes and stored overnight at room temperature, protected from light. The next morning 1 milliliter of water was added to the sample and shaken for 15 minutes. The sample was then centrifuged at approximately 1500 rpm for 15 minutes. Two ml of the organic phase (top layer) was transferred to a glass vial, dried at 37° C., under nitrogen, for approximately 1 hour, and then lyophilized for approximately 48 hours. The samples were then removed from the lyophilizer and each vial was reconstituted with 600 μl of solvent A (trimethylpentane/tetrahydrofuran (99:1). The samples were then recapped and vortexed for 5 minutes.
200 μl of each sample was then transferred to a pre-labeled 200 μl HPLC vial with 200 μL glass inserts. The HPLC vials were placed in the autosampler tray for the Agilent 1100 series HPLC unit. The Agilent 1100 HPLC system consisted of a thermostated autosampler, a quarternary pump, a column heater, and an A/D interface module. All components were controlled by Agilent ChemStation software. A Waters Spherisorb S3W 4.6×100 mm analytical column was maintained at 30° C. by the Agilent column heater unit. The HPLC autosampler was programmed to maintain the sample temperature at 20 C. throughout the run.
10 uL of each sample was injected in triplicate into the column. Two solvents were used for the solvent gradient. Solvent A was an admixture of trimethylpentane and tetrahydrofuran (99:1). Solvent B was ethylacetate. The gradient utilized is described in the table below: […]
The Sedex 75 Evaporative Light Scattering Detector (ELSD) was operated at 45° C. with a gain of 5, and N2 pressure maintained at 3.1 bar. Analog signal obtained by the instrument was sent to the Agilent A/D interface module where it was converted to a digital output. The conversion was based on a 10000 mAU/volt set point and the data rate was set at 10 Hz (0.03 min). […]

patients = conditions: after 7 years of treatment; cited from earlier work

For CC1(C)COC(=O)C1Oc1ccc(C#N)c(C(F)(F)F)c1 (racemic) [Example 1, (±)-4-(4,4-Dimethyl-2-oxo-tetrahydro-furan-3-yloxy)-2-trifluoromethyl-benzonitrile)], the IC50 (androgen receptor) was 0.06 µM, the IC50 (hAR; ARB (IC50)) was 0.122 µM and the “Sum of WE & WE” value (male Syrian hamsters; 1% w/v topical twice daily) was 128. The “% CE reduction” value (male Syrian hamsters; 1% w/v topical twice daily) was 55% and the “% WE reduction” value (male Syrian hamsters; 1% w/v topical twice daily) was 73%.

Compound N#Cc1ccc(OC2CCOC2=O)cc1C(F)(F)F (racemic) [Example 4, (±)-4-(2-Oxo-tetrahydro-furan-3-yloxy)-2-trifluoromethyl-benzonitrile] has a melting point of 120 °C and an IC50 (hAR; read-out: ARB (IC50)) of 5.85 µM.

For N#Cc1ccc(OC2CCOC2=O)cc1C(F)(F)F (single isomer, unassigned; (+)) [Example 5, (+)-4-(2-Oxo-tetrahydro-furan-3-yloxy)-2-trifluoromethyl-benzonitrile], the melting point was 107 to 108 °C and the IC50 (hAR; read-out: ARB (IC50)) was 9.8 µM.

For N#Cc1ccc(OC2CCOC2=O)cc1C(F)(F)F (single isomer, unassigned; (-)) [Example 6, (−)-4-(2-Oxo-tetrahydro-furan-3-yloxy)-2-trifluoromethyl-benzonitrile], the IC50 (hAR; read-out: ARB (IC50)) was 1.67 µM.

With CC1(C)COC(=O)[C@@H]1Oc1ccc(C#N)c(C(F)(F)F)c1 [Example 2, (R)-(+)-4-(4,4-Dimethyl-2-oxo-tetrahydro-furan-3-yloxy)-2-trifluoromethyl-benzonitrile] the IC50 (androgen receptor) was 0.047 µM, the melting point was 89.9 to 90.7 °C and the IC50 (hAR; ARB (IC50)) was 0.071 µM. The “Sum of WE & WE” value (male Syrian hamsters; 3% w/v topical twice daily) was 171, the “% CE reduction” value (male Syrian hamsters; 3% w/v topical twice daily) was 79% and the “% WE reduction” value (male Syrian hamsters; 3% w/v topical twice daily) was 92%.

For CC1(C)COC(=O)[C@H]1Oc1ccc(C#N)c(C(F)(F)F)c1 [Example 3, (S)-(−)-4-(4,4-Dimethyl-2-oxo-tetrahydro-furan-3-yloxy)-2-trifluoromethyl-benzonitrile], the IC50 (androgen receptor; inhibition of induction by 100 pM DHT, 17 hr, mean of multiple tests, read-out: ARCell (IC50)) was > 1 µM, the melting point was 83.1 to 84.4 °C and the IC50 (hAR; ARB (IC50)) was > 10 µM.

For NCCCC(O)(P(=O)(O)O)P(=O)(O)O [alendronate], the “Increase in spinal BMD” value (patients) is given as ≤ 11%.

— patent US20070207987A1, “Androgen Modulators” (WARNER-LAMBERT COMPANY LLC, priority 2004, published 2007)
